± gives the expanded uncertainty stated by the source.
Experiments:
[1] = Molar enthalpy of transition or fusion; settings: Crystal; DSC
[2] = molar heat capacity at constant pressure; settings: 101.33 kPa, Metastable liquid, Small sample (50 mg) DSC

For `Nc1cc[nH]c(=O)n1` [4-amino-2-hydroxypyrimidine], the Normal melting temperature (Crystal, DTA) was 334 ± 3 °C, the Glass transition temperature (Glass, DSC) was 115 ± 3 °C and the “Molar enthalpy of transition or fusion” value [1] was 8.34 ± 0.55 kcal/mol. The “molar heat capacity at constant pressure” value ([2]; 408 K) was 268 ± 36 J/K/mol, the “molar heat capacity at constant pressure” value ([2]; 413 K) was 269 ± 38 J/K/mol and the “molar heat capacity at constant pressure” value ([2]; 418 K) was 271 ± 40 J/K/mol. For the same compound, the “molar heat capacity at constant pressure” value ([2]; 423 K) was 272 ± 42 J/K/mol and the “molar heat capacity at constant pressure” value ([2]; 428 K) was 274 ± 44 J/K/mol.
In the case of `c1ccc2cc3ccccc3cc2c1` [anthracene], the “Molar enthalpy of transition or fusion” value [1] is reported as 6.52 ± 0.693 kcal/mol.

Source: the NIST ThermoML archive (doi:10.1016/j.tca.2017.09.013)
